Source: ChEMBL document CHEMBL4651402, “Screening of ~5500 FDA-approved drugs and clinical candidates for anti-SARS-CoV-2 activity” (2021)
pIC50: −log10 of the molar value. Square brackets hold non-standard residues; d marks the D form. Peptide text beside a SMILES is read from it. Orn = NCCC[C@H](N)C(=O)O

Tested on: SARS-CoV-2
Experiment: microbe, parasite or virus in culture
Settings: Severe acute respiratory syndrome coronavirus 2, Vero C1008, 48 h; for IC50: read-out: pIC50 (converted)

| SMILES | pIC50 | IC50 [µM] |
| --- | --- | --- |
| CCC(=O)OCC(=O)[C@@]1(OC(=O)CC)C(C)CC2C3CCC4=CC(=O)C=CC4(C)[C@@]3(Cl)C(O)CC21C (some centres not stated) | < 4.70 | > 20 |
| CCN(CC)CCc1nc(-c2ccccc2)no1 [OXOLAMINE] | < 4.70 | > 20 |
| C=CC(N)CCC(=O)O (configuration not stated) [VIGABATRIN] | < 4.70 | > 20 |
| COC(=O)N1CCN(Cc2cccc(NC(=O)Nc3ccc(C)nc3)c2F)CC1 [OMECAMTIV MECARBIL] | < 4.70 | > 20 |
| CC(C)NCC(O)COc1ccc(CCOCC2CC2)cc1 (configuration not stated) [BETAXOLOL] | < 4.70 | > 20 |
| CC1CC2=CC(=O)CCC2C2CCC3(C)C(CCC3(C)O)C12 (configuration not stated) | < 4.70 | > 20 |
| Nc1ccn([C@H]2C[C@H](O)[C@@H](CO)O2)c(=O)n1 [DOXECITINE] | < 4.70 | > 20 |
| O=C(O)[C@@H]1CSCN1 [THIOPROLINE] | < 4.70 | > 20 |
| NC(=O)c1cc([N+](=O)[O-])cc([N+](=O)[O-])c1 [NITROMIDE] | < 4.70 | > 20 |
| CC(C)CC(N(C)C)C1(c2ccc(Cl)cc2)CCC1 (configuration not stated) [SIBUTRAMINE] | < 4.70 | > 20 |
| CCCCCCCOC(=O)NC1=NC(=O)N([C@H]2C[C@H](O)[C@@H](CO)O2)CN1 [KP-1461] | < 4.70 | > 20 |
| CC12CCC(=O)C=C1CCC1C2CCC2(C)C1CC[C@H]2O (some centres not stated) | < 4.70 | > 20 |
| c1ccc2c(c1)CC[C@H](CNCCCNC1=NCCCN1)O2 | < 4.70 | > 20 |
| CC(C)C[C@@H]1NC(=O)[C@H](CCCN)NC(=O)[C@H](C(C)C)NC(=O)[C@@H]2CCCN2C(=O)[C@@H](Cc2ccccc2)NC(=O)[C@H](CC(C)C)NC(=O)[C@H](CCCN)NC(=O)[C@H](C(C)C)NC(=O)[C@@H]2CCCN2C(=O)[C@@H](Cc2ccccc2)NC1=O [GRAMICIDIN S] (cyclo(L[dF]PV[Orn]L[dF]PV[Orn])) | < 4.70 | > 20 |
| NC(=O)c1ccc(I)c([N+](=O)[O-])c1 [INIPARIB] | < 4.70 | > 20 |
| O=C(O)c1cc2cc(Cc3cccnc3)ccc2o1 [FUREGRELATE] | < 4.70 | > 20 |
| CC(=O)OC1CCC2C3CCc4cc(O)ccc4C3CCC12C (configuration not stated) | < 4.70 | > 20 |
| CC(=O)N(c1onc(C)c1C)S(=O)(=O)c1ccc(N)cc1 [SULFISOXAZOLE ACETYL] | < 4.70 | > 20 |
| CCOc1ccc(CC2=NCCc3cc(OC(C)C)c(OC(C)C)cc32)cc1OCC [DIPROTEVERINE] | < 4.70 | > 20 |
| O=C1OCCN1/N=C\c1ccc([N+](=O)[O-])o1 | < 4.70 | > 20 |
| COc1cc(C(C)=O)ccc1OCCCN1CCC(c2noc3cc(F)ccc23)CC1 [ILOPERIDONE] | < 4.70 | > 20 |
| CC(=O)c1cc2ccccc2oc1=O [3-ACETYLCOUMARIN] | < 4.70 | > 20 |
| CC(=O)OC1CCC2(C)C(=CCC3C2CCC2(C)C(OC(=O)c4ccccc4)CCC32)C1 (configuration not stated) | < 4.70 | > 20 |
| Cc1[nH]nc(C(F)(F)F)c1Cc1sc2c(c1C(=O)N1C[C@](C)(O)CO1)c(=O)n(C)c(=O)n2C(C)C [AZD3965] | < 4.70 | > 20 |
| CCC(=O)NC[C@@H]1C[C@H]1c1cccc2c1CCO2 [TASIMELTEON] | < 4.70 | > 20 |
| CC12CCC3C4CCC(=O)C=C4CCC3C1CCC2OC(=O)CCc1ccccc1 (configuration not stated) | < 4.70 | > 20 |

| SMILES | pIC50 | IC50 [µM] |
| --- | --- | --- |
| CCNC(=O)N1CCN(CCCC(c2ccc(F)cc2)c2ccc(F)cc2)CC1 [AMPEROZIDE] | < 4.70 | > 20 |
| NC(=O)N1C(=O)/C(=C(\O)c2cccs2)c2cc(Cl)ccc21 [TENIDAP] | < 4.70 | > 20 |
| CCCCCCC1C(=O)O[C@H](C)[C@H](NC(=O)c2cccc(NC=O)c2O)C(=O)O[C@@H](C)[C@@H]1OC(=O)CC(C)C (some centres not stated) | < 4.70 | > 20 |
| O=C(CN1CCN(Cc2ccc3c(c2)OCO3)CC1)N1c2ccccc2Sc2ccccc21 [FENOVERINE] | < 4.70 | > 20 |
| NS(=O)(=O)c1cc(-c2nnn[nH]2)c(NCc2cccs2)cc1Cl [AZOSEMIDE] | < 4.70 | > 20 |
| COc1ccc(CN(CCN(C)C)c2ccccn2)cc1 [PYRILAMINE] | < 4.70 | > 20 |
| Nc1ccc(S(N)(=O)=O)cc1 [SULFANILAMIDE] | < 4.70 | > 20 |
| COc1c2occc2c(OC)c2c(=O)cc(C)oc12 [KHELLIN] | < 4.70 | > 20 |
| CCCCCCCCc1ccc(CCC(N)(CO)CO)cc1 [FINGOLIMOD] | < 4.70 | > 20 |
| COC(=O)C1=C(C)NC(C)=C(C(=O)OCC(C)C)C1c1ccccc1[N+](=O)[O-] (configuration not stated) [NISOLDIPINE] | < 4.70 | > 20 |
| CCOP(=O)(Cc1ccc(-c2nc3ccccc3s2)cc1)OCC [FOSTEDIL] | < 4.70 | > 20 |
| CC#CCn1c(N2CCC[C@@H](N)C2)nc2c1c(=O)n(Cc1nc(C)c3ccccc3n1)c(=O)n2C [LINAGLIPTIN] | < 4.70 | > 20 |
| CCC(C)C(C(=O)OC1CCN(C)CC1)c1ccccc1 (configuration not stated) [PENTAPIPERIDE] | < 4.70 | > 20 |
| OC(c1ccccc1)(c1ccccc1)C1CN2CCC1CC2 (configuration not stated) [QUIFENADINE] | < 4.70 | > 20 |
| O=C(c1ccc(F)cc1)C1CCN(CCn2c(=O)[nH]c3ccccc3c2=O)CC1 [KETANSERIN] | < 4.70 | > 20 |
| CN1[C@@H](CC(=O)c2ccccc2)CCC[C@H]1C[C@H](O)c1ccccc1 [LOBELINE] | < 4.70 | > 20 |
| Cc1nc(C)c(C)nc1C [LIGUSTRAZINE] | < 4.70 | > 20 |
| NCC1O[C@H](O[C@@H]2C(N)C[C@@H](N)C(O[C@H]3OC(CO)[C@@H](O)C(N)C3O)C2O)C(N)C(O)[C@@H]1O (some centres not stated) | < 4.70 | > 20 |
| C=C(C)C1CC=C(CO)CC1 (configuration not stated) | < 4.70 | > 20 |
| Cc1c(N)cccc1Cn1ccc(OCCc2cccs2)cc1=O [CG-400549] | < 4.70 | > 20 |
| CCOC(=O)[C@H](CCc1ccccc1)CC1(C(=O)N[C@H]2CCc3ccccc3N(CC(=O)O)C2=O)CCCC1 | < 4.70 | > 20 |
| Nc1nc(N)nc(-c2cc(Cl)ccc2Cl)n1 [IRSOGLADINE] | < 4.70 | > 20 |
| COC1=C(O)C(=O)c2c(cc3oc(C(C)=O)c(O)c3c2O)C1=O [RHODOCLADONIC ACID] | < 4.70 | > 20 |
| CC(=O)C1CCC2C3CCC4=CC(=O)CCC4(C)C3C(O)CC12C (configuration not stated) | < 4.70 | > 20 |
| Clc1ccc(Cn2c(CN3CCCC3)nc3ccccc32)cc1 [CLEMIZOLE] | < 4.70 | > 20 |
| CC(=O)Oc1ccc(C(c2ccc(OC(C)=O)cc2)c2ccccn2)cc1 [BISACODYL] | < 4.70 | > 20 |

| SMILES | pIC50 | IC50 [µM] |
| --- | --- | --- |
| CC(C(=O)O)c1ccc2oc(-c3ccc(Cl)cc3)nc2c1 (configuration not stated) [BENOXAPROFEN] | < 4.70 | > 20 |
| c1cnc2cc3c(cc2n1)[C@@H]1CNC[C@H]3C1 [VARENICLINE] | < 4.70 | > 20 |
| NC(CO)Cc1ccccc1 (configuration not stated) | < 4.70 | > 20 |
| O=C(O)c1cc(=O)c2ccccc2o1 [CHROMOCARB] | < 4.70 | > 20 |
| C[C@@H](O)CCCCn1c(=O)c2c(ncn2C)n(C)c1=O [LISOFYLLINE] | < 4.70 | > 20 |
| Clc1ccc(C(Cn2ccnc2)OCc2csc3c(Cl)cccc23)c(Cl)c1 (configuration not stated) [SERTACONAZOLE] | < 4.70 | > 20 |
| COC(=O)CCC(C)C1CCC2C3C(C[C@H](O)[C@]12C)[C@@]1(C)CC[C@@H](O)C[C@H]1C[C@H]3O (some centres not stated) | < 4.70 | > 20 |
| Cc1ccccc1OCC(O)CNCCOc1ccc(C(N)=O)cc1 (configuration not stated) [TOLAMOLOL] | < 4.70 | > 20 |
| CC(=O)O[C@H]1CC[C@@]2(C)C(=CC(=O)[C@@H]3[C@@H]2CC[C@]2(C)C(=O)CC[C@@H]32)C1 | < 4.70 | > 20 |
| COc1cccc(Nc2ncnn3ccc(CN4CC[C@@H](N)[C@H](O)C4)c23)c1 [BMS-690514] | < 4.70 | > 20 |
| Nc1ncnc2c1ncn2C1OC(COP(=O)(O)O)C(O)C1O (configuration not stated) | < 4.70 | > 20 |
| C=CCC1(C(C)C)C(=O)NC(=O)NC1=O [APROBARBITAL] | < 4.70 | > 20 |
| CNC[C@H](O)[C@@H](O)[C@H](O)[C@H](O)CO [MEGLUMINE] | < 4.70 | > 20 |
| CCOP(=O)(Cc1ccc(C(=O)Nc2ccc(Br)cc2C#N)cc1)OCC [IBROLIPIM] | < 4.70 | > 20 |
| O=C(CCCCCCNC(=O)c1cnc(N(c2ccccc2)c2ccccc2)nc1)NO [RICOLINOSTAT] | < 4.70 | > 20 |
| NS(=O)(=O)c1cc2c(cc1C(F)(F)F)NC(Cc1ccccc1)NS2(=O)=O (configuration not stated) [BENDROFLUMETHIAZIDE] | < 4.70 | > 20 |
| Nc1nc2ccc(OC(F)(F)F)cc2s1 [RILUZOLE] | < 4.70 | > 20 |
| O=c1cccc2n1C[C@@H]1CNC[C@H]2C1 [CYTISINICLINE] | < 4.70 | > 20 |
| NCCCNc1ccc2c3c(nn2CCNCCO)-c2c(O)ccc(O)c2C(=O)c13 [PIROXANTRONE] | < 4.70 | > 20 |
| Nc1c2c(nc3ccccc13)CCCC2O (configuration not stated) [VELNACRINE] | < 4.70 | > 20 |
| C[C@H](N)Cc1cccc(O)c1 [GEPEFRINE] | < 4.70 | > 20 |
| C[C@]12C[C@H](O)[C@H]3[C@@H](CCC4=CC(=O)CC[C@@]43C)[C@@H]1CC[C@@H]2C(=O)CO [CORTICOSTERONE] | < 4.70 | > 20 |
| CC(=O)OC1CCC2(C)C(=CCC3C2CCC2(C)C(C(C)CCCC(C)C)CCC32)C1 (configuration not stated) | < 4.70 | > 20 |
| O=[N+]([O-])c1cccc2cn[nH]c12 [7-NITROINDAZOLE] | < 4.70 | > 20 |
